Our source for the IC50 values is patent US10172843B2, “Piperidine derivatives” (Hoffmann-La Roche Inc., priority 2014, dated 2019).

Sequence of human Cat S (P25774 115-331): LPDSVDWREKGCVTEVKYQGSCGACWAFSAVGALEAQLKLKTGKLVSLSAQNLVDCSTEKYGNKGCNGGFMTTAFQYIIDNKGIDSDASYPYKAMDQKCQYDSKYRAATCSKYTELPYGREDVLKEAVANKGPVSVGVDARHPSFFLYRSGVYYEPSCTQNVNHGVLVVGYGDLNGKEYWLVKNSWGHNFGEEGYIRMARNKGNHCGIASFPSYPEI

One assay concerns the target human Cat S (Homo sapiens (Human), UniProt P25774). Nature of the assay: Cathepsin enzyme inhibition assay (fluorogenic peptide substrate). The class given is biochemical. The following applies: human Cat S, enzyme 1 nM, substrate Z-Val-Val-Arg-AMC, pH 6.5; read-out: CatS IC50. The procedure: Cathepsin Enzyme Inhibition Assay
Enzyme activity is measured by observing the increase in fluorescence intensity caused by cleavage of a peptide substrate containing a fluorophore whose emission is quenched in the intact peptide.
Assay buffer: 100 mM potassium phosphate pH 6.5, EDTA-Na 5 mM, Triton X-100 0.001%, DTT 5 mM.
Enzymes (all at 1 nM): human and mouse Cathepsin S, Cat K, Cat B, Cat L.
Substrate ([…], except for Cat K which uses Z-Leu-Arg-AMC (both from Bachem).
Excitation 360 nm, Emission 465 nm.
Enzyme is added to the substance dilutions in 96-well microtitre plates and the reaction is started with substrate. […] IC50 are calculated by standard methods.
Inhibition of human Cat S, mouse Cat S, human Cat K, mouse Cat K, human Cat B, mouse Cat B, human Cat L and mouse Cat L have been measured separately.
Usually IC50 stands for the midpoint of a concentration-inhibition curve. Consider `CCCc1[nH]c(-c2ccc(C(F)(F)F)cc2)nc1CN1CCC(N2Cc3ccccc3NC2=O)CC1` [Example 62, 3-{1-[5-Propyl-2-(4-trifluoromethyl-phenyl)-1H-imidazol-4-ylmethyl]-piperidin-4-yl}-3,4-dihydro-1H-quinazolin-2-one], for which the IC50 is 300 nM.
On to `Cc1[nH]c(-c2ccc(C(F)(F)F)cc2)nc1CN1CCC(c2c[nH]c3ncccc23)CC1` [Example 38, 3-{1-[5-Methyl-2-(4-trifluoromethyl-phenyl)-1H-imidazol-4-ylmethyl]-piperidin-4-yl}-1H-pyrrolo[2,3-b]pyridine], for which the IC50 amounted to 470 nM.
Same read-out and setting: next, `Cc1[nH]c(-c2ccc(S(=O)(=O)CC(C)C)cc2)nc1CN1CCC(N2Cc3ccccc3NC2=O)CC1` [Example 78, 3-(1-{5-Methyl-2-[4-(2-methyl-propane-1-sulfonyl)-phenyl]-1H-imidazol-4-ylmethyl}-piperidin-4-yl)-3,4-dihydro-1H-quinazolin-2-one]: 1070 nM; `Cc1[nH]c(-c2ccc(C(F)(F)F)c(Cl)c2)nc1CN1CCC(N2Cc3ccccc3NC2=O)CC1` [Example 40, 3-{1-[2-(3-Chloro-4-trifluoromethyl-phenyl)-5-methyl-1H-imidazol-4-ylmethyl]-piperidin-4-yl}-3,4-dihydro-1H-quinazolin-2-one]: 77 nM; `Cc1nc(-c2ccc(C(F)(F)F)cc2)[nH]c1CN1CCC(n2cnc3c(=O)[nH]ccc32)CC1` [Example 13, 1-[1-[[4-Methyl-2-[4-(trifluoromethyl)phenyl]-1H-imidazol-5-yl]methyl]-4-piperidyl]-5H-imidazo[4,5-c]pyridin-4-one]: 2750 nM.
Regarding `Cc1[nH]c(-c2ccc(C(F)(F)F)cc2Cl)nc1CN1CCC(N2Cc3ccccc3NC2=O)CC1` [Example 59, 3-{1-[2-(2-Chloro-4-trifluoromethyl-phenyl)-5-methyl-1H-imidazol-4-ylmethyl]-piperidin-4-yl}-3,4-dihydro-1H-quinazolin-2-one], the IC50 came to 285 nM.
Same read-out and setting: then `Cc1[nH]c(-c2ccc(C(F)(F)F)cc2)nc1CN1CCC(n2c(=O)[nH]c3ccc(N4CCCC4)cc32)CC1` [Example 9, 1-{1-[5-Methyl-2-(4-trifluoromethyl-phenyl)-1H-imidazol-4-ylmethyl]-piperidin-4-yl}-6-pyrrolidin-1-yl-1,3-dihydro-benzoimidazol-2-one], with 190 nM.
As for `Cc1[nH]c(-c2ccc(C(F)(F)F)cc2)nc1CN1CCC(n2cnc3ccccc32)CC1` [Example 3, 1-{1-[5-Methyl-2-(4-trifluoromethyl-phenyl)-1H-imidazol-4-ylmethyl]-piperidin-4-yl}-1H-benzoimidazole], the IC50 stood at 450 nM.
Still for that read-out and setting: then `O=C1Nc2ccccc2CN1C1CCN(Cc2nc(-c3ccc(C(F)(F)F)cc3)[nH]c2Cc2ccccc2)CC1` [Example 56, 3-{1-[5-Benzyl-2-(4-trifluoromethyl-phenyl)-1H-imidazol-4-ylmethyl]-piperidin-4-yl}-3,4-dihydro-1H-quinazolin-2-one], with 225 nM.
On the same count and under the same terms, next, `CNC(=O)Cn1c(=O)n(C2CCN(Cc3nc(-c4ccc(C(F)(F)F)cc4)[nH]c3C)CC2)c2ccc(Cl)cc21` [Example 32, 2-(6-Chloro-3-{1-[5-methyl-2-(4-trifluoromethyl-phenyl)-1H-imidazol-4-ylmethyl]-piperidin-4-yl}-2-oxo-2,3-dihydro-benzoimidazol-1-yl)-N-methyl-acetamide]: 330 nM; `Cc1c(CN2CCC(N3Cc4ccccc4NC3=O)CC2)nc(-c2ccc(C(F)(F)F)cc2)n1C` [Example 71, 3-{1-[1,5-Dimethyl-2-(4-trifluoromethyl-phenyl)-1H-imidazol-4-ylmethyl]-piperidin-4-yl}-3,4-dihydro-1H-quinazolin-2-one]: 84 nM.
The same measure, in the same setting: next, `Cc1cn(-c2ccc(C(F)(F)F)cc2)nc1CN1CCC(N2Cc3ccccc3NC2=O)CC1` [Example 68, 3-{1-[4-Methyl-1-(4-trifluoromethyl-phenyl)-1H-pyrazol-3-ylmethyl]-piperidin-4-yl}-3,4-dihydro-1H-quinazolin-2-one]: 650 nM; `COC(=O)Cn1c(=O)n(C2CCN(Cc3nc(-c4ccc(C(F)(F)F)cc4)[nH]c3C)CC2)c2ccc(Cl)cc21` [Example 33, (6-Chloro-3-{1-[5-methyl-2-(4-trifluoromethyl-phenyl)-1H-imidazol-4-ylmethyl]-piperidin-4-yl}-2-oxo-2,3-dihydro-benzoimidazol-1-yl)-acetic acid methyl ester]: 130 nM; `Cc1[nH]c(-c2ccc(Cl)c(F)c2)nc1CN1CCC(N2Cc3ccccc3NC2=O)CC1` [Example 50, 3-{1-[2-(4-Chloro-3-fluoro-phenyl)-5-methyl-1H-imidazol-4-ylmethyl]-piperidin-4-yl}-3,4-dihydro-1H-quinazolin-2-one]: 605 nM.
For `Cc1[nH]c(-c2ccc(S(=O)(=O)C(F)(F)F)cc2)nc1CN1CCC(c2c[nH]c3ccncc23)CC1` [Example 77, 3-{1-[5-Methyl-2-(4-trifluoromethanesulfonyl-phenyl)-1H-imidazol-4-ylmethyl]-piperidin-4-yl}-1H-pyrrolo[3,2-c]pyridine], the IC50 amounted to 155 nM.
The same measure, in the same setting: next, `Cc1[nH]c(-c2ccc(C(F)(F)F)cc2)nc1CN1CCC(c2c[nH]c3ccccc23)CC1` [Example 36, 3-{1-[5-Methyl-2-(4-trifluoromethyl-phenyl)-1H-imidazol-4-ylmethyl]-piperidin-4-yl}-1H-indole]: 770 nM; `Cc1[nH]c(-c2ccc(Cl)c(Cl)c2)nc1CN1CCC(N2Cc3ccc(F)cc3NC2=O)CC1` [Example 48, 3-{1-[2-(3,4-Dichloro-phenyl)-5-methyl-1H-imidazol-4-ylmethyl]-piperidin-4-yl}-7-fluoro-3,4-dihydro-1H-quinazolin-2-one]: 450 nM; `Cc1[nH]c(-c2ccc(S(C)(=O)=O)cc2)nc1CN1CCC(N2Cc3ccccc3NC2=O)CC1` [Example 74, 3-{1-[2-(4-Methanesulfonyl-phenyl)-5-methyl-1H-imidazol-4-ylmethyl]-piperidin-4-yl}-3,4-dihydro-1H-quinazolin-2-one]: 94 nM.
Still for that read-out and setting: then “5-(4-Bromophenyl)-3-[1-[[2-[4-(trifluoromethyl)phenyl]-1H-imidazol-5-yl]methyl]-4-piperidyl]-1H-imidazol-2-one [Example 15]”, with 4560 nM.
Still for that read-out and setting: next, `O=c1[nH]c(-c2ccc(Br)cc2)nn1C1CCN(Cc2cnc(-c3ccc(C(F)(F)F)cc3)[nH]2)CC1` [Example 16, 5-(4-Bromophenyl)-2-[1-[[2-[4-(trifluoromethyl)phenyl]-1H-imidazol-5-yl]methyl]-4-piperidyl]-4H-1,2,4-triazol-3-one]: 1500 nM; `Cc1[nH]c(-c2ccc(C(F)(F)F)cc2)nc1CN1CCC(n2c(=O)n(C)c3cc(Cl)ccc32)CC1` [Example 18, 5-Chloro-3-methyl-1-{1-[5-methyl-2-(4-trifluoromethyl-phenyl)-1H-imidazol-4-ylmethyl]-piperidin-4-yl}-1,3-dihydro-benzoimidazol-2-one]: 195 nM.

The same assay, now with this note: read-out: CatS IC50.
As to `Cc1[nH]c(-c2ccc(C(F)(F)F)cc2)nc1CN1CCC(N2C(=O)Cc3cc(Cl)ccc32)CC1` [Example 43, 5-Chloro-1-{1-[5-methyl-2-(4-trifluoromethyl-phenyl)-1H-imidazol-4-ylmethyl]-piperidin-4-yl}-1,3-dihydro-indol-2-one], the IC50 came to 445 nM.
